Drawing on publication PMC10453993 (Emerging Microbes & Infections, 2023), this text covers EC50 for three molecules.

Read-outs that look alike come from different tables or passages of the source.

This experiment concerns SARS-CoV-2 VOCs. As to the kind of experiment: microbe, parasite or virus in culture. Type of experiment: cell-based.
Where [1] appears, read: Severe acute respiratory syndrome coronavirus 2, read-out: EC50, dsRNA staining.
Setting [2] is: Severe acute respiratory syndrome coronavirus 2, read-out: EC50, nucleocapsid staining.

In general, EC50 refers to the concentration at which the effect is half-maximal. Regarding `CN(C)c1ccc(N(Cc2cc(Cl)cs2)C(=O)Cc2cncc3cccc(O)c23)cc1` [C5a, N-((4-chlorothiophen-2-yl)methyl)-N-(4-(dimethylamino)phenyl)-2-(5-hydroxyisoquinolin-4-yl)acetamide], the half-maximal effective concentration (EC50) under setting [1] is 28 to 95 nM and the EC50 under setting [2] was in the range of 30 to 69 nM.

On to `CN(C)c1ccc(N(Cc2cc(Cl)cs2)C(=O)Cc2cncc3ccccc23)cc1` [C5, N-((4-chlorothiophen-2-yl)methyl)-N-(4-(dimethylamino)phenyl)-2-(isoquinolin-4-yl)acetamide], for which the concentration giving a half-maximal response (EC50) was 200 to 700 nM under setting [1] and 100 to 300 nM under setting [2].

As to `CC(C)(C)[C@H](NC(=O)C(F)(F)F)C(=O)N1C[C@H]2[C@@H]([C@H]1C(=O)N[C@H](C#N)C[C@@H]1CCNC1=O)C2(C)C` [C7, Nirmatrelvir, reference compound], a half-maximal effect (Severe acute respiratory syndrome coronavirus 2, Calu-3) (EC50) was put at 1300 nM; the EC50 under setting [1] was 400 to 700 nM; the EC50 under setting [2] was in the range of 300 to 400 nM.
